Where two headings read alike, the source gives them in different places.
How the values were obtained:
[1] = system: IL-1β release in U937 cells after NLRP3 activation; experiment: IC50 determination of IL-1β release inhibition in U937 cells; format: cell-based; conditions: Homo sapiens, read-out: IL-1β IC50 (nM) U937 cells
Summary of the method: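 PMA-differentiated U937 cells (90 h) were primed 5 h with 1 μg/mL LPS, pre-incubated 30 min with compound, then stimulated with nigericin for 1 h. Supernatant IL-1β was quantified by MSD electrochemiluminescence. IC50 was derived from IL-1β concentration, with duplicate wells per compound.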

[2] = system: IL-1β release in THP-1-ASC-GFP cells after NLRP3 activation; experiment: IC50 determination of IL-1β release inhibition in THP-1-ASC-GFP cells; format: cell-based; conditions: THP1-ASC-GFP, read-out: IL-1β IC50 (nM) THP1 cells
Summary of the method: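 THP-1-ASC-GFP cells were primed with 1 μg/mL LPS for 4 h, pretreated with compound for 30 min, then stimulated with nigericin plus compound for 1 h. Secreted IL-1β in supernatants was quantified by MSD electrochemiluminescence immunoassay. IC50 values were calculated from the measured IL-1β concentrations.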

[3] = U-937, PMA-differentiated U937 cells, LPS priming 5 h, nigericin, average of at least three experiments
[4] = THP-1-ASC-GFP cells, LPS priming 4 h, nigericin, average of at least three experiments

IC50 [1, 3] | IC50 [2, 4] | Structure (SMILES) | IC50 ([1]; U-937, 5 h) | IC50 ([2]; 4 h)
– | – | CC(C)NCc1coc(S(=N)(=O)NC(=O)Nc2c3c(cc4c2CCC4)CCC3)c1 (stereo not drawn) [Example 23, N-((1,2,3,5,6,7-hexahydro-s-indacen-4-yl)carbamoyl)-4-((isopropylamino)methyl)furan-2-sulfonimidamide] | < 5 nM | < 5 nM
5 to 50 nM | < 5 nM | Cc1oc(S(=N)(=O)NC(=O)Nc2c3c(c(F)c4c2CCC4)CCC3)cc1CN1CC(O)C1 (stereo not drawn) [Example 14, N-((8-fluoro-1,2,3,5,6,7-hexahydro-s-indacen-4-yl)carbamoyl)-4-((3-hydroxyazetidin-1-yl)methyl)-5-methylfuran-2-sulfonimidamide] | – | –
50 to 500 nM | 5 to 50 nM | Cn1nc(S(=O)(=O)NC(=O)Nc2c3c(c(F)c4c2CCC4)CCC3)cc1CN1CC[C@H](O)C1 [Example 60, (S)-N-((8-fluoro-1,2,3,5,6,7-hexahydro-s-indacen-4-yl)carbamoyl)-5-((3-hydroxypyrrolidin-1-yl)methyl)-1-methyl-1H-pyrazole-3-sulfonamide] | – | –

Source: patent US20250388568A1, “NLRP3 INHIBITORS” (Kodiak Sciences Inc., priority 2022, published 2025)
